The results in this text go back to US8178506B2, “Oligomeric compounds and compositions for use in modulation of small non-coding RNAs” (Regulus Therapeutics Inc., priority 2003, dated 2012).

In the oligonucleotide strings, read from the 5' end, every base follows the letter of its sugar. An asterisk marks phosphorothioate; unmarked linkages are phosphodiester. Other units and linkages are bracketed, terminal groups are in braces. A string of capitals states the bases alone. e = 2'-O-(2-methoxyethyl) (MOE); [5mC] = 5-methylcytosine; d = 2'-deoxy (DNA)

One data set relates to IGFBP-1. Put plainly: IGFBP-1 mRNA expression in HepG2 cells. In kind it is cell-based, human. As to conditions: for IGFBP1 mRNA expression: Experiment 2, insulin treated: HepG2 cells transfected with oligomeric compound, 1 nM insulin for four hours, UTC + 1 nM insulin = 100; for IGFBP1 mRNA: HepG2 cells, Experiment 1, basal (no insulin), four hours, UTC = 100. The protocol:
(§1) Approximately 28 hours after transfection, the cells are subjected to serum starvation for a period of 12 to 16 hours, using serum-free growth medium. Following serum starvation, cells are treated with 1 nM insulin (insulin-treated) or are left untreated (basal conditions) for approximately four hours. At the same time, untreated control cells in both plates are treated with 100 nM insulin to determine the maximal insulin response. Following insulin treatment (forty-eight hours after transfection), total RNA is harvested from all samples, and the amount of total RNA from each sample is determined using a Ribogreen assay (Invitrogen Corporation, Carlsbad, Calif.). Real-time PCR is performed on the total RNA samples using primer/probe sets for three insulin responsive genes: insulin-like growth factor binding protein-1 (IGFBP-1), cytosolic PEPCK (PEPCK-C), and follistatin. Gene expression levels obtained by real-time PCR are normalized for total RNA content in the samples.
(§2) Oligomeric compounds of the present invention were tested for their effects on insulin signaling in HepG2 cells. HepG2 cells were plated at 7500 cells/well in collagen coated 96-well plates. The following day, cells were transfected with oligomeric compounds targeting miRNAs using 100 nM oligomeric compound in LIPOFECTIN™ (Invitrogen Corporation, Carlsbad, Calif.) in two 96-well plates. The oligomeric compounds were tested in triplicate on each 96-well plate, except for positive and negative controls, which were measured up to six times per plate. At the end of transfection, the transfection medium was replaced by regular growth medium. Twenty-eight hours post-transfection, the cells were subjected to overnight (sixteen to eighteen hours) serum starvation using serum free growth medium. Forty-four hours post-transfection, the cells in the transfected wells were treated with either no insulin (“basal” Experiment 1, for identification of insulin-mimetic compounds) or with 1 nM insulin (“insulin treated” Experiment 2, for identification of insulin sensitizers) for four hours. At the same time, in both plates, cells in some of the un-transfected control wells are treated with 100 nM insulin to determine maximal insulin response. At the end of the insulin or no-insulin treatment (forty-eight hours post-transfection), total RNA is isolated from both the basal and insulin treated (1 nM) 96-well plates, and the amount of total RNA from each sample is determined using a Ribogreen assay (Molecular Probes, Eugene, Oreg.). Real-time PCR is performed on all the total RNA samples using primer/probe sets for three insulin responsive genes: PEPCK-c, IGFBP-1 and follistatin. Expression levels for each gene are normalized to total RNA, and values+standard deviation are expressed relative to the transfectant only untreated control (UTC) and negative control compounds.
(§3) Protocols for treatment of HepG2 cells and transfection of oligomeric compounds are as described in Example 18. Also as described in Example 18, forty-four hours post-transfection, the cells in the transfected wells were treated with either no insulin (“basal” Experiment 3 (below), for identification of insulin-mimetic compounds) or with 1 nM insulin (“insulin treated” Experiment 4 (below), for identification of insulin sensitizers) for four hours. At the same time, in both plates, cells in some of the un-transfected control wells are treated with 100 nM insulin to determine maximal insulin response. At the end of the insulin or no-insulin treatment (forty-eight hours post-transfection), total RNA is isolated from both the basal and insulin treated (1 nM) 96-well plates, and the amount of total RNA from each sample is determined using a Ribogreen assay (Molecular Probes, Eugene, Oreg.).

The next data set deals with PEPCK-c. Put plainly: PEPCK-c mRNA expression in HepG2 cells. In kind it is cell-based, human. Particulars: for PEPCKc mRNA expression: Experiment 2, insulin treated: HepG2 cells transfected with oligomeric compound, 1 nM insulin for four hours, UTC + 1 nM insulin = 100; for PEPCKc mRNA: HepG2 cells, Experiment 1, basal (no insulin), four hours, UTC = 100. The protocol:
as §1, §2, §3

A further data set relates to T47D cells. Description: Caspase-3 activity assay (apoptosis) in T47D cells. Particulars: T47D cells, 200 nM oligomeric compound, 48 hours; experiment of Table 10.
The next data set concerns follistatin. Description: Follistatin mRNA expression in HepG2 cells. In kind it is cell-based, human. Particulars: for Follistatin mRNA expression: Experiment 2, insulin treated: HepG2 cells transfected with oligomeric compound, 1 nM insulin for four hours, UTC + 1 nM insulin = 100; for Follistatin mRNA: HepG2 cells, Experiment 1, basal (no insulin), four hours, UTC = 100. The protocol: as §1, §2, §3

Data set [1] deals with BJ, B16-F10, T47D, T47Dp53 and HeLa cells. Put plainly: Cell cycle assay (propidium iodide flow cytometry), cell line panel. It counts as cell-based. As to conditions: 150 nM oligomeric compound, 4.5 μg/ml LIPOFECTIN, after 72 hours, propidium iodide flow cytometry. (In general: Flow cytometry measures light scatter and fluorescence of single cells or particles in a stream.)

The next data set concerns HeLa cells. Put plainly: Cell cycle assay in HeLa cells. In kind it is cell-based, human. As to conditions: HeLa cells.
The next data set deals with HSL. Description: HSL mRNA expression in adipocytes (real-time PCR). It counts as cell-based, human. Particulars: differentiating adipocytes transfected with oligomeric compound; Table 75. In general terms: Real-time PCR tracks product formation cycle by cycle.
A further data set has as its system PPARγ. Put plainly: PPARγ mRNA expression in adipocytes (real-time PCR). In kind it is cell-based, human. As to conditions: differentiating adipocytes transfected with oligomeric compound; Table 75.
A further data set deals with adipocytes. Put plainly: Triglyceride accumulation assay in adipocytes. It counts as cell-based, human. As to conditions: differentiating adipocytes transfected with oligomeric compound; Table 75.
Another data set deals with Glut4. Description: Glut4 mRNA expression in adipocytes (real-time PCR). As to conditions: differentiating adipocytes transfected with oligomeric compound; Table 75. In kind it is cell-based, human.
A further data set deals with aP2. Description: aP2 mRNA expression in adipocytes (real-time PCR). It counts as cell-based, human. As to conditions: differentiating adipocytes transfected with oligomeric compound; Table 75.
[2] abbreviates: 150 nM oligomeric compound, 24 hours, relative to untreated control (UTC = 100).
Where [3] appears, read: 150 nM oligomeric compound, 48 hours after treatment, relative to untreated control (UTC=100).
Where [4] appears, read: 150 nM, 48 hours, relative to untreated control.

Consider “328423 (antisense e[5mC]*e[5mC]*eA*e[5mC]*eA*dT*dA*dT*dA*d[5mC]*dA*dT*dA*dT*dA*eT*eA*e[5mC]*eG*e[5mC]) [compound 328423]”, for which the “IGFBP1 mRNA expression” value in the data set with IGFBP-1 is given as 69. Also, the “PEPCKc mRNA expression” value with PEPCK-c is given as 77. Further, the “Fold Increase over UTC (caspase-3 activity, apoptosis)” value in the data set with T47D cells amounted to 0.6 fold. The “Follistatin mRNA expression” value in the data set with follistatin came to 114. In addition, in data set [1], the “G1 (percentage of cells in phase of the cell cycle)” value turned out to be 52.9%, the “G2/M (percentage of cells in phase of the cell cycle)” value stood at 14.8%, the “S (percentage of cells in phase of the cell cycle)” value is 32.4% and the “SubG1 (percentage of cells in phase of the cell cycle)” value is recorded as 4.9%. In addition, the “aneuploid (percentage of cells)” value in data set [1] was determined as 15.3%.
As for “328342 (e[5mC]*eA*eA*eT*eT*dG*d[5mC]*dG*d[5mC]*dT*dA*d[5mC]*dA*dG*dA*eA*e[5mC]*eT*eG*eT) [compound 328342]”, the “IGFBP1 mRNA expression” value with IGFBP-1 is recorded as 98. The “PEPCKc mRNA expression” value in the data set on PEPCK-c was found to be 39. For the same substance, in the data set with HeLa cells (setting [2]), the “% cells aneuploid” value was 67%, the “% cells in cell cycle phase G1” value was determined as 33%, the “% cells in cell cycle phase G2/M” value came out at 238% and the “% cells in cell cycle phase S” value came to 95%. Further, in the data set on HeLa cells (setting [2]), the “% cells in cell cycle phase subG1” value amounted to 192%. Besides, in the data set on HeLa cells (setting [3]), the “% cells in cell cycle phase: G1” value worked out at 55%, the “% cells in cell cycle phase: G2/M” value stood at 225%, the “% cells in cell cycle phase: S” value is on record as 115% and the “% cells in cell cycle phase: aneuploid” value was found to be 107%. The “% cells in cell cycle phase: subG1” value in the data set with HeLa cells (setting [3]) came to 189%. Further, in the data set on HeLa cells (setting [4]), the “% cells in cell cycle phase G1” value is 96%, the “% cells in cell cycle phase G2/M” value is given as 138%, the “% cells in cell cycle phase S” value came to 89% and the “% cells in cell cycle phase aneuploid” value is 96%. The “% cells in cell cycle phase subG1” value in the data set with HeLa cells (setting [4]) was found to be 103%. In addition, in the data set with follistatin, the “Follistatin mRNA expression” value was 88. Moreover, in [1], the “G1 (percentage of cells in phase of the cell cycle)” value amounted to 62.3%, the “G2/M (percentage of cells in phase of the cell cycle)” value was 12.8%, the “S (percentage of cells in phase of the cell cycle)” value was 24.9% and the “SubG1 (percentage of cells in phase of the cell cycle)” value worked out at 4.8%. Further, the “aneuploid (percentage of cells)” value in data set [1] was 15.2%.
Regarding “341801 (antisense CCUAUCUCCCCUCUGGACC; all 2'-MOE, all phosphorothioate, methylation of C and T or U not given here) [compound 341801]”, the “HSL mRNA” value in the data set with HSL is listed as 89 percentage of untreated control (UTC). For the same substance, the “IGFBP1 mRNA” value with IGFBP-1 was determined as 99. The “PEPCKc mRNA” value with PEPCK-c turned out to be 73. The “PPAR gamma mRNA” value in the data set on PPARγ is listed as 82 percentage of untreated control (UTC). The “Follistatin mRNA” value in the data set with follistatin was 85. For the same substance, the “TG (triglyceride accumulation)” value with adipocytes is recorded as 65 percentage of untreated control (UTC). Also, in the data set on Glut4, the “GLUT4 mRNA” value is reported as 77 percentage of untreated control (UTC). Moreover, the “aP2 mRNA” value in the data set on aP2 is on record as 90 percentage of untreated control (UTC).
“341802 (antisense AGCUGCUUUUGGGAUUCCGUUG; all 2'-MOE, all phosphorothioate, methylation of C and T or U not given here) [compound 341802]”: the “HSL mRNA” value in the data set on HSL is reported as 121 percentage of untreated control (UTC). Further, the “IGFBP1 mRNA” value in the data set with IGFBP-1 is listed as 186. Besides, in the data set on PEPCK-c, the “PEPCKc mRNA” value amounted to 98. Also, the “PPAR gamma mRNA” value in the data set on PPARγ is 127 percentage of untreated control (UTC). For the same substance, the “Follistatin mRNA” value with follistatin is reported as 136. Besides, the “TG (triglyceride accumulation)” value in the data set with adipocytes was 155 percentage of untreated control (UTC). The “GLUT4 mRNA” value in the data set with Glut4 was 85 percentage of untreated control (UTC). Moreover, the “aP2 mRNA” value in the data set on aP2 is recorded as 98 percentage of untreated control (UTC).
For the substance “328649 (eG*eT*eA*eG*eA*dT*dA*dA*d[5mC]*dT*dA*dA*dA*d[5mC]*dA*e[5mC]*eT*eA*e[5mC]*e[5mC]; antisense) [compound 328649]”, the “IGFBP1 mRNA expression” value in the data set on IGFBP-1 came to 115. In the data set with PEPCK-c, the “PEPCKc mRNA expression” value came out at 86. The “Fold Increase over UTC (caspase-3 activity, apoptosis)” value with T47D cells is on record as 1.0 fold. For the same substance, the “Follistatin mRNA expression” value with follistatin is given as 69.
